What was measured:
[1] = system: Keratinozyten; test: Keratinocyte culture: cell count after 12 days and days to confluence (Beispiel 2); type: cell-based, human
[2] = system: Keratinozyten; test: Keratinocyte culture with FCS or Nu-Serum: cell count after 12 days and days to confluence (Beispiel 3); type: cell-based, human
From the text: Kerationozyten wurden durch Trypsinierung von Haut nach der Methode von M. Green (Green, M. et al, PNAS 76 (1979) 5665) gewonnen und in einer Zelldichte von 2,5 x 10 ⁴ Zellen/cm² ausgesät. Die Hautproben in den Beispielen 1, 2 und 3 stammten von Patienten die zwischen 30 und 40 Jahre alt waren. Zusätzlich wurden die Kulturen mit 2 x 10 ⁴ Zellen/cm² letal bestrahlter 3T3-Fibroblasten inokuliert, beschrieben im US-Patent 4,016,036.
Als Medium diente eine Mischung aus DMEM und HAM's F 12 (3:1) mit folgenden Zusätzen: Hydrocortison 0,4 ug/ml Insulin 5 ug/ml Triiodo-Thyronin 2x10⁻⁹M Transferrin 5 ug/ml Adenin 8 x 10⁻⁴ M Gentamycin, Penicillin, Streptomycin je 50 ug/ml Fötales Kälberserum 10 % EGF (nach 2 Tagen) 10 ng/ml
In diesem Experiment, das wie unter Beispiel 1 beschrieben durchgeführt wurde, wurden verschiedene Forskolinkonzentrationen unter Verwendung bzw. in Vergleich von 10 % fötalem Kälberserum (FCS) und einem synthetischen Serum der Firma Biomedica Wien (Nu-Serum Nr. 1) untersucht.

## C=C[C@@]1(C)CC(=O)[C@]2(O)[C@@]3(C)[C@@H](O)CCC(C)(C)[C@@H]3[C@H](O)[C@H](OC(C)=O)[C@@]2(C)O1 [Forskolin]
[1]; 5x10^-5M
  Anzahl der Tage bis zur Konfluenz: 18 Tage
  Zellzahl nach 12 Tagen in einer 25cm^2 Kultur-schale: 13 x 10^5
[1]; 5x10^-6M
  Anzahl der Tage bis zur Konfluenz: 14 Tage
  Zellzahl nach 12 Tagen in einer 25cm^2 Kultur-schale: 23 x 10^5
[1]; 10^-5M
  Anzahl der Tage bis zur Konfluenz: 14 Tage
  Zellzahl nach 12 Tagen in einer 25cm^2 Kultur-schale: 25 x 10^5
[1]; 10^-6M
  Anzahl der Tage bis zur Konfluenz: 18 Tage
  Zellzahl nach 12 Tagen in einer 25cm^2 Kultur-schale: 12 x 10^5
[1]; 10^-7M
  Anzahl der Tage bis zur Konfluenz: 24 Tage
  Zellzahl nach 12 Tagen in einer 25cm^2 Kultur-schale: 8 x 10^5
[1]; 10^-8M
  Zellzahl nach 12 Tagen in einer 25cm^2 Kultur-schale: 2,5 x 10^5
[1]; Forskolin 5 x 10⁻⁶ bzw. 10⁻⁵ in the medium
  Reduction of the Zeit bis zum Erreichen einer konfluenten Keratinozytenkultur im Vergleich zu Cholera Toxin: ≤ 40%
[2]; FCS, 5x10^-5M
  Anzahl der Tage bis zur Konfluenz: 18 Tage
  Zellzahl nach 12 Tagen in einer 25cm^2 Kultur-schale: 16 x 10^5
[2]; FCS, 5x10^-6M
  Anzahl der Tage bis zur Konfluenz: 15 Tage
  Zellzahl nach 12 Tagen in einer 25cm^2 Kultur-schale: 24 x 10^5
[2]; FCS, 10^-5M
  Anzahl der Tage bis zur Konfluenz: 14 Tage
  Zellzahl nach 12 Tagen in einer 25cm^2 Kultur-schale: 32 x 10^5
[2]; FCS, 10^-6M
  Anzahl der Tage bis zur Konfluenz: 20 Tage
  Zellzahl nach 12 Tagen in einer 25cm^2 Kultur-schale: 14 x 10^5
[2]; Nu-Serum, 5x10^-5M
  Anzahl der Tage bis zur Konfluenz: 18 Tage
  Zellzahl nach 12 Tagen in einer 25cm^2 Kultur-schale: 13 x 10^5
[2]; Nu-Serum, 5x10^-6M
  Anzahl der Tage bis zur Konfluenz: 16 Tage
  Zellzahl nach 12 Tagen in einer 25cm^2 Kultur-schale: 25 x 10^5
[2]; Nu-Serum, 10^-5M
  Anzahl der Tage bis zur Konfluenz: 15 Tage
  Zellzahl nach 12 Tagen in einer 25cm^2 Kultur-schale: 27 x 10^5
[2]; Nu-Serum, 10^-6M
  Anzahl der Tage bis zur Konfluenz: 20 Tage
  Zellzahl nach 12 Tagen in einer 25cm^2 Kultur-schale: 14 x 10^5
